Experimental findings from patent US9610277B2, “Formula comprising a hypolipidemic agent” (Cadila Healthcare Limited, priority 2013, dated 2017) are described below.

Entries after “also recorded” stand apart in the source; their conditions may differ.

Common to all, as to format: physicochemical
Series [1] is described as follows: Stability of API at 40° C./75% RH (percent purity). The source says: (§1) Therefore the inventors of the present invention have tried to develop a stable formulation of API such that the API is protected and cannot absorb moisture.
A short description of series [2]: Moisture absorption of API at 40° C./75% RH (water by KF).
From the text: as §1

The nature of series [3]: Sulfoxide impurity level over six months. The source says: Further, one of the impurity (sulfoxide) which was being generated in API increases from 0.17% to 0.76% over a period of 6 months. […] Therefore stabilization of compositions containing compounds of formula (I) can be made by maintaining the microenvironmental pH of composition above 7 by using suitable alkalinizers. Use of a suitable antioxidant(s) and chelating agent(s) further stabilizes the formulation.

Series [4] in a line: pH degradation of API in standard pH buffers (sulfoxide impurity at 0.3 RRT). To be noted: different standard pH buffers, after 24 hours. The protocol: FIG. 1: Percentage of sulfoxide impurity level (0.3 RRT) at different pH after 24 hours.
When the pH was modulated by addition of alkalinizer(s) then sulfoxide impurity level in API is restricted.
About 1% w/v aqueous dispersion of tablets was used for pH measurement. pH degradation can be seen with API when kept in different standard pH buffers.

`CCO[C@@H](Cc1ccc(OCCn2c(C)ccc2-c2ccc(SC)cc2)cc1)C(=O)O` [API, Saroglitazar Magnesium]: the “Percent Purity” value came to 98.10% in series [1] (1 Month), 97.93% in series [1] (2 Month), 97.17% in series [1] (3 Month) and 98.48% in series [1] (Initial). The Water By KF in series [2] (1 Month) was 1.17%; in series [2] (2 Month), 2.32%; in series [2] (3 Month), 2.57%; in series [2] (Initial) it was 0.62%. Besides, the values for the sulfoxide impurity level in series [3] (after 6 months) and in series [3] (start of the six month period) were 0.76% and 0.17%, respectively. The “Percentage individual impurity at 0.3 RRT (Sulphoxide impurity)” value in series [4] is recorded as “restricted; also recorded: decreases as the solution of pH increases above pH 7”.
